For assay [1], the system named is P-388 lymphocytic leukemia cells. The assay can be described thus: cell culture assay using P-388 lymphocytic leukemia cells (cytotoxicity of N-debenzoyl-N-acyltaxols). It is filed as cell-based. As to conditions: Mus musculus, P388; P-388 cell culture; taxol reference; read-out: Absolute ED50. As for the experimental part:
For details of the cell culture assay, see Abbott, B. J., "Protocol 14 of Instruction 275," National Cancer Institute, National Institutes Of Health, Jan. 24, 1978. N-acyltaxol analogs are important analogs of taxol for anticancer treatment. The present invention provides a simple way of preparing such analogs from taxol or cephalomannine without removing the C-13 side-chain.
*Cytotoxicity is recorded as ED50 value relative to taxol determined
in the same assay. Absolute ED50 of taxol is approximately 0.03

The conditions of assay [2]: in some assays; reported in literature; cited from earlier work.

≈ marks a conversion by molar mass, not a printed value.

On to `CC(=O)O[C@H]1C(=O)[C@@]2(C)[C@H]([C@H](OC(=O)c3ccccc3)[C@]3(O)C[C@H](OC(=O)[C@H](O)[C@@H](NC(=O)c4ccccc4)c4ccccc4)C(C)=C1C3(C)C)[C@]1(OC(C)=O)CO[C@@H]1C[C@@H]2O` [taxol], for which the IC50 in assay [1] is about 0.03 µg/mL (≈ 0.0351 µM). With `CC(=O)O[C@@]12CO[C@@H]1C[C@H](O)[C@@]1(C)C(=O)[C@H](O)C3=C(C)[C@@H](OC(=O)[C@H](O)[C@@H](NC(=O)OC(C)(C)C)c4ccccc4)C[C@@](O)([C@@H](OC(=O)c4ccccc4)[C@H]21)C3(C)C` [taxotere], the “activity relative to taxol” value in assay [2] was “approximately twice as active as taxol”.

The values above are taken from US5470866A, “Method for the conversion of cephalomannine to taxol and for the preparation of n-acyl analogs of taxol” (Virginia Polytechnic Institute and State University, priority 1994, dated 1995).
